Test results: paper PMC4737580 (Bioorganic & medicinal chemistry letters, 2010)
One block for each molecule: values may come before it.

Tests used:
furin = furin (Homo sapiens, UniProt P09958); test: Furin inhibition, Ki from Dixon plots; type: biochemical
[1] = general statement, no reference given; cited from earlier work

Chain of furin (P09958 108-794): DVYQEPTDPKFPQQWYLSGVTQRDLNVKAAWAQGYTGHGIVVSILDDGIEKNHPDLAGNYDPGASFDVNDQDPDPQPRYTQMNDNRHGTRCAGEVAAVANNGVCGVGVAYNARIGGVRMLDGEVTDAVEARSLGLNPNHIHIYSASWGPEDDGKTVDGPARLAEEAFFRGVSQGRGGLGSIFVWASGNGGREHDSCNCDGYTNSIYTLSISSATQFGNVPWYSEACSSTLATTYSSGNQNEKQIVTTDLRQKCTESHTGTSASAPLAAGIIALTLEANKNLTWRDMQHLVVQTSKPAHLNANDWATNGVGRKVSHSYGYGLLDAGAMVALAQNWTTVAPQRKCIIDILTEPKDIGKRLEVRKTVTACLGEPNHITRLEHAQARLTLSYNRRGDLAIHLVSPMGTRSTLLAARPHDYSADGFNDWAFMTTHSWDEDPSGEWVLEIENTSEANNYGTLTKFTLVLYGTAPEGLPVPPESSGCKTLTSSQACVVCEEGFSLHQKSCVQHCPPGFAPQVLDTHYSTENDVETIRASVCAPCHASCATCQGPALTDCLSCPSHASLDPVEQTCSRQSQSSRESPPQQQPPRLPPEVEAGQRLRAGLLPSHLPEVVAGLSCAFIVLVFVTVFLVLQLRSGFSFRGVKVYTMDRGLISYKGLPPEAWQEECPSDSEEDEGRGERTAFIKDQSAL

Ki (furin; Ki, Ki values from Dixon plots): 25 µM
SMILES: N=C(N)N/N=C/c1ccccc1OCc1ccc(Cl)cc1 [Compound 2]

fold improved Ki compared to 1 (furin; relative to compound 1): approximately 4 fold
SMILES: C/C(=N\NC(=N)N)c1cc(NC(=O)CCCNC(=N)N)cc(/C(C)=N/NC(=N)N)c1 [Compound 17]

SMILES: N=C(N)N [guanidine]
pKa [1]: approximately 13
